Assay results as given in ChEMBL document CHEMBL6096634, “Exploration of novel 20S proteasome activators featuring anthraquinone structures and their application in hypoxic cardiomyocyte protection” (Bioorg Med Chem, 2024).
Where “and” joins values, the source holds several entries; their conditions need not be identical. Equal entries are not always repeated. Calls of active or inactive are those of the source. The calls are words filed in the database; no cut-off is given here.

Columns and labels:
[1] = biological target: T1, 20S proteasome (Homo sapiens) (UniProt P49721+P20618+P28074+P28062+P28065+P28072+P25786+P25787+P25788+P25789+P28066+P60900+O14818+Q8TAA3+P40306+A5LHX3+P49720+P28070+Q99436); assay: (§1) Activation of human erythrocyte-derived 20s proteosome using CT-L as peptide substrate by fluorescence based analysis; assay type: cell-based; conditions: for EC200: filed as activator
[2] = biological target: T1, 20S proteasome (Homo sapiens); assay: Activation of human erythrocyte-derived 20s proteosome using CT-L as peptide substrate at 10 uM by fluorescence based analysis relative to control; assay type: cell-based; conditions: filed as activator
20S proteasome [3] = assay: as §1; assay type: cell-based
[4] = biological target: T1, 20S proteasome (Homo sapiens); assay: (§2) Activation of human erythrocyte-derived 20s proteosome using T-L as peptide substrate by fluorescence based analysis; assay type: cell-based; conditions: filed as activator
H9c2 [5] = assay: Protection against hypoxia-induced cell damage in rat H9c2 cells at 0.025 uM incubated for 14 hrs by MTT assay; assay type: functional, cell-based
H9c2 [6] = assay: Upregulation of Ki-67 expression in rat H9c2 cells at 0.25 uM under normoxic condition by qRT-PCR analysis; assay type: functional, cell-based
H9c2 [7] = assay: Upregulation of Ki-67 expression in rat H9c2 cells at 0.25 uM under hypoxic condition by qRT-PCR analysis; assay type: functional, cell-based
H9c2 [8] = assay: Effect on PCNA expression in rat H9c2 cells at 0.25 uM under normoxic condition by qRT-PCR analysis; assay type: functional, cell-based
H9c2 [9] = assay: Effect on PCNA expression in rat H9c2 cells at 0.25 uM under hypoxic condition by qRT-PCR analysis; assay type: functional, cell-based
HEK293 = assay: Inhibition of […]-induced ER stress in HEK293 cells harbouring XBP1-delta DBD-Luc cells assessed as decrease in luciferase activity incubated for 8 hrs by […]; assay type: functional, cell-based; conditions: Homo sapiens, dose 10-20 µM
H9c2 [10] = assay: Protection against hypoxia-induced cell damage in rat H9c2 cells at 0.05 uM incubated for 14 hrs by MTT assay; assay type: functional, cell-based
H9c2 [11] = assay: Protection against hypoxia-induced cell damage in rat H9c2 cells at 0.1 uM incubated for 14 hrs by MTT assay; assay type: functional, cell-based
H9c2 [12] = assay: Anti-apoptotic activity in rat H9c2 cells at 0.1 uM preincubated for 24 hrs followed by incubation under normoxic condition for 18 hrs by Annexin V-FITC and PI staining based flow cytometry analysis; assay type: functional, cell-based; conditions: time 42.0 hrs
H9c2 [13] = assay: Anti-apoptotic activity in rat H9c2 cells at 0.1 uM preincubated for 24 hrs followed by incubation under hypoxic condition for 18 hrs by Annexin V-FITC and PI staining based flow cytometry analysis; assay type: functional, cell-based; conditions: time 42.0 hrs
H9c2 [14] = assay: Anti-apoptotic activity in rat H9c2 cells at 0.1 uM under normoxic condition by TUNEL staining based analysis; assay type: functional, cell-based
H9c2 [15] = assay: Anti-apoptotic activity in rat H9c2 cells at 0.1 uM under hypoxic condition by TUNEL staining based analysis; assay type: functional, cell-based
H9c2 [16] = assay: Anti-apoptotic activity in rat H9c2 cells assessed as viable cells at 0.1 uM preincubated for 24 hrs followed by incubation under normoxic condition for 18 hrs by Annexin V-FITC and PI staining based flow cytometry analysis (reference value: 94.7%); assay type: functional; conditions: time 42 hrs, read-out: Activity
H9c2 [17] = assay: Anti-apoptotic activity in rat H9c2 cells assessed as early apoptotic cells at 0.1 uM preincubated for 24 hrs followed by incubation under normoxic condition for 18 hrs by Annexin V-FITC and PI staining based flow cytometry analysis (reference value: 0.75%); assay type: functional; conditions: time 42 hrs
H9c2 [18] = assay: Anti-apoptotic activity in rat H9c2 cells assessed as late apoptotic cells at 0.1 uM preincubated for 24 hrs followed by incubation under normoxic condition for 18 hrs by Annexin V-FITC and PI staining based flow cytometry analysis (reference value: 3.68%); assay type: functional; conditions: time 42 hrs
H9c2 [19] = assay: Anti-apoptotic activity in rat H9c2 cells assessed as necrotic cells at 0.1 uM preincubated for 24 hrs followed by incubation under normoxic condition for 18 hrs by Annexin V-FITC and PI staining based flow cytometry analysis (reference value: 0.60%); assay type: functional; conditions: time 42 hrs
H9c2 [20] = assay: Anti-apoptotic activity in rat H9c2 cells assessed as viable cells at 0.1 uM preincubated for 24 hrs followed by incubation under hypoxic condition for 18 hrs by Annexin V-FITC and PI staining based flow cytometry analysis (reference value: 85.85%); assay type: functional; conditions: time 42 hrs, read-out: Activity
H9c2 [21] = assay: Anti-apoptotic activity in rat H9c2 cells assessed as early apoptotic cells at 0.1 uM preincubated for 24 hrs followed by incubation under hypoxic condition for 18 hrs by Annexin V-FITC and PI staining based flow cytometry analysis (reference value: 4.06%); assay type: functional; conditions: time 42 hrs
H9c2 [22] = assay: Anti-apoptotic activity in rat H9c2 cells assessed as late apoptotic cells at 0.1 uM preincubated for 24 hrs followed by incubation under hypoxic condition for 18 hrs by Annexin V-FITC and PI staining based flow cytometry analysis (reference value: 8.60%); assay type: functional; conditions: time 42 hrs
H9c2 [23] = assay: Anti-apoptotic activity in rat H9c2 cells assessed as necrotic cells at 0.1 uM preincubated for 24 hrs followed by incubation under hypoxic condition for 18 hrs by Annexin V-FITC and PI staining based flow cytometry analysis (reference value: 0.50%); assay type: functional; conditions: time 42 hrs
H9c2 [24] = assay: Upregulation of Ki-67 expression in rat H9c2 cells at 0.1 uM under normoxic condition by qRT-PCR analysis; assay type: functional, cell-based
H9c2 [25] = assay: Upregulation of Ki-67 expression in rat H9c2 cells at 0.1 uM under hypoxic condition by qRT-PCR analysis; assay type: functional, cell-based
H9c2 [26] = assay: Effect on PCNA expression in rat H9c2 cells at 0.1 uM under normoxic condition by qRT-PCR analysis; assay type: functional, cell-based
H9c2 [27] = assay: Effect on PCNA expression in rat H9c2 cells at 0.1 uM under hypoxic condition by qRT-PCR analysis; assay type: functional, cell-based
20S proteasome [28] = assay: as §2; assay type: cell-based
[29] = biological target: T1, 20S proteasome (Homo sapiens); assay: (§3) Activation of human erythrocyte-derived 20s proteosome using Casp-L as peptide substrate by fluorescence based analysis; assay type: cell-based; conditions: filed as activator
20S proteasome [30] = assay: as §3; assay type: cell-based
[31] = biological target: T1, 20S proteasome (Homo sapiens); assay: Activation of human erythrocyte-derived 20s proteosome assessed as fold maximum enhancement using CT-L as peptide substrate by fluorescence based analysis; assay type: cell-based; conditions: filed as activator
[32] = biological target: T1, 20S proteasome (Homo sapiens); assay: Activation of human erythrocyte-derived 20s proteosome assessed as fold maximum enhancement using T-L as peptide substrate by fluorescence based analysis; assay type: cell-based; conditions: filed as activator
[33] = biological target: T1, 20S proteasome (Homo sapiens); assay: Activation of human erythrocyte-derived 20s proteosome assessed as fold maximum enhancement using Casp-L as peptide substrate by fluorescence based analysis; assay type: cell-based; conditions: filed as activator
[34] = biological target: 26S proteasome (Homo sapiens) (UniProt Q99460+P49721+P20618+P28074+P28062+P28065+P28072+O00487+P25786+P25787+P25788+P25789+P28066+P60900+O14818+Q8TAA3+P40306+A5LHX3+P49720+P28070+Q99436+Q16186+P35998+P62191+P43686+P62333+P17980+P62195+Q13200+O43242+O00232+O00231+Q15008+P51665+Q9UNM6+P55036+P48556+P60896); assay: Activation of 26s proteosome (unknown origin); assay type: protein-complex assay

Row | SMILES | Activity [2] [%] | EC200 [1] | EC50 (20S proteasome [3]) | fold change (FC) [4] | further results
1 | O=C(NCCN1CCOCC1)c1cc(O)c2c(c1)C(=O)c1cccc(O)c1C2=O | 68.6 | – | – | – | Activity [1]: inactive
2 | COc1ccc(Nc2cc(NCC(C)C)c(N)c3c2C(=O)c2ccccc2C3=O)cc1 | 360 | 0.61 µM | 1570 nM | 5.03 | Activity (H9c2 [5]): Active; Activity (H9c2 [6]): Active; Activity (H9c2 [7]): Active; Activity (H9c2 [8]): inactive; Activity (H9c2 [9]): inactive; inhibition (HEK293): Active
3 | COc1ccc(Nc2cc(NCC(C)C)c3noc4c3c2C(=O)c2ccccc2-4)cc1 | 276 | 0.7 µM | 3020 nM | 3.54 | –
4 | COc1ccc(NC(=O)c2cc(O)c3c(c2)C(=O)c2cccc(O)c2C3=O)cc1 | 696 | 0.32 µM | 2050 nM | 8.91 | –
5 | Cc1cccc(Nc2cc(NCCO)c3noc4c3c2C(=O)c2ccccc2-4)c1 | 119 | – | – | – | Activity [1]: inactive
6 | Cc1ccccc1Nc1cc(NCC(C)C)c2noc3c2c1C(=O)c1ccccc1-3 | 486 | 0.67 µM | 3380 nM | 6.38 | Activity (H9c2 [10]): Active; Activity (H9c2 [11]): Active; Activity (H9c2 [12]): inactive; Activity (H9c2 [13]): Active; Activity (H9c2 [14]): inactive; Activity (H9c2 [15]): Active; viability at 0.1 µM (H9c2 [16]): 94.6%; Activity (H9c2 [17]): 0.65%; Activity (H9c2 [18]): 3.53%; Activity (H9c2 [19]): 1.3%; viability at 0.1 µM (H9c2 [20]): 92.8%; Activity (H9c2 [21]): 1.18%; Activity (H9c2 [22]): 4.73%; Activity (H9c2 [23]): 1.34%; Activity (H9c2 [24]): Active; Activity (H9c2 [25]): Active; Activity (H9c2 [26]): inactive; Activity (H9c2 [27]): inactive; inhibition (HEK293): Active
7 | O=C1c2cccc(O)c2C(=O)c2c(O)cc(C(=O)N3CCC(c4ccccc4)CC3)cc21 | 233 | 1.37 µM | 2720 nM | 3.71 | –
8 | CN(CCc1ccccc1)C(=O)c1cc(O)c2c(c1)C(=O)c1cccc(O)c1C2=O | 148 | – | – | – | Activity [1]: inactive
9 | Cc1cccc(Nc2cc(NCC(C)C)c3noc4c3c2C(=O)c2ccccc2-4)c1 | 472 | 0.46 µM and 0.38 µM | 1830 nM and 850 nM | 5.98 | EC200 [4]: 0.75 µM; EC50 (20S proteasome [28]): 2330 nM; EC200 [29]: 0.93 µM; EC50 (20S proteasome [30]): 1900 nM; fold change (FC) [31]: 6.22; fold change (FC) [32]: 4.37; fold change (FC) [33]: 9.77; Activity [34]: inactive; Activity (H9c2 [5]): Active; inhibition (HEK293): Active
10 | O=C1c2cccc(O)c2C(=O)c2c(O)cc(C(=O)N3CCc4ccccc4C3)cc21 | 350 | 1.14 µM | 4020 nM | 3.79 | –
11 | CC(C)CNC(=O)c1cc(O)c2c(c1)C(=O)c1cccc(O)c1C2=O | 376 | 2.15 µM | 2570 nM | 2.23 | –
12 | O=C(Nc1ccc(N2CCOCC2)cc1)c1cc(O)c2c(c1)C(=O)c1cccc(O)c1C2=O | 552 | 0.2 µM | 1800 nM | 6.36 | Activity (H9c2 [5]): Active
